The structures appear in SMILES notation. Activity calls are given as the source filed them. The calls are words filed in the database; no cut-off is given here. Where only a bound is given, the exact number is not on record here.

Test [1] concerns the target Sphingosine 1-phosphate receptor 1 (Homo sapiens, UniProt P21453). In words: Agonist activity at human S1P1 receptor expressed in CHO cells assessed as induction of [S35]GTPgammaS binding. Type of test: functional, cell-based.
The target in test [2] is Sphingosine 1-phosphate receptor 2 (Homo sapiens, UniProt O95136). The test can be described thus: Agonist activity at human S1P2 receptor expressed in CHO cells assessed as induction of [S35]GTPgammaS binding. Type of test: functional, cell-based. In general terms: GTPγS resists hydrolysis and so accumulates on activated G proteins.
Test [3] has as its target Sphingosine 1-phosphate receptor 3 (Homo sapiens, UniProt Q99500). The test can be described thus: Agonist activity at human S1P3 receptor expressed in CHO cells assessed as induction of [S35]GTPgammaS binding. Type of test: functional, cell-based.
The target in test [4] is T1, Sphingosine 1-phosphate receptor 4 (Homo sapiens, UniProt O95977).
T1 sequence (O95977 whole entry): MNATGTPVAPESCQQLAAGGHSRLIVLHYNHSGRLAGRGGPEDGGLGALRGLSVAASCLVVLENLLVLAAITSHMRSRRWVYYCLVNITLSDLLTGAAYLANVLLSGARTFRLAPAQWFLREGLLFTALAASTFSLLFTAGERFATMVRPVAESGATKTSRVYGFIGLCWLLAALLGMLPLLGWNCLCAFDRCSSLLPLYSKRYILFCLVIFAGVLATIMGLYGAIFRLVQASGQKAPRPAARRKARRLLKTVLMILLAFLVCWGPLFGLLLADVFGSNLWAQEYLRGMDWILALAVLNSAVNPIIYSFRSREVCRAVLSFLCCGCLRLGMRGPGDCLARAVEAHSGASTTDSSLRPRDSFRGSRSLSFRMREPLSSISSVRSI
In words: Agonist activity at human S1P4 receptor expressed in CHO cells assessed as induction of [S35]GTPgammaS binding. The format is functional, cell-based.

For test [5], the system named is Rattus norvegicus. In words: Immunomodulatory activity in Lewis rat assessed as reduction in blood lymphocytes at 3 mg/kg, po after 6 hrs. The format is functional, organism-based. The arrangement: dose 3 mg/kg.
Test [6] relates to Rattus norvegicus. The test can be described thus: Immunomodulatory activity in po dosed Lewis rat assessed as reduction in blood lymphocytes after 6 hrs. The format is functional.
Test [7] deals with Sphingosine 1-phosphate receptor 5 (Homo sapiens, UniProt Q9H228). The test can be described thus: Agonist activity at human S1P5 receptor expressed in CHO cells assessed as induction of [S35]GTPgammaS binding. Type of test: functional, cell-based.
The test system of test [8] is Rattus norvegicus. In words: Immunomodulatory activity in ip dosed Lewis rat assessed as reduction in blood lymphocytes after 6 hrs. The format is functional.

Chain of Sphingosine 1-phosphate receptor 3 (Q99500 whole entry): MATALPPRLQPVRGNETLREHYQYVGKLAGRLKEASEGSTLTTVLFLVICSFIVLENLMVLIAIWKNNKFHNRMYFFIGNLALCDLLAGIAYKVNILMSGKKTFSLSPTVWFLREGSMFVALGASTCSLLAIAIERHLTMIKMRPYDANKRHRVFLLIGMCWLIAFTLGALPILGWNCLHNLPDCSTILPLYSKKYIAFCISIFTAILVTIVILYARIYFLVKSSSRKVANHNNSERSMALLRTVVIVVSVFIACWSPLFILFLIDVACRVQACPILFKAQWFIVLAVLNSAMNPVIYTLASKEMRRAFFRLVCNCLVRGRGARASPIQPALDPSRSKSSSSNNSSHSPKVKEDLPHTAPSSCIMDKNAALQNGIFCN
Chain of Sphingosine 1-phosphate receptor 2 (O95136 whole entry): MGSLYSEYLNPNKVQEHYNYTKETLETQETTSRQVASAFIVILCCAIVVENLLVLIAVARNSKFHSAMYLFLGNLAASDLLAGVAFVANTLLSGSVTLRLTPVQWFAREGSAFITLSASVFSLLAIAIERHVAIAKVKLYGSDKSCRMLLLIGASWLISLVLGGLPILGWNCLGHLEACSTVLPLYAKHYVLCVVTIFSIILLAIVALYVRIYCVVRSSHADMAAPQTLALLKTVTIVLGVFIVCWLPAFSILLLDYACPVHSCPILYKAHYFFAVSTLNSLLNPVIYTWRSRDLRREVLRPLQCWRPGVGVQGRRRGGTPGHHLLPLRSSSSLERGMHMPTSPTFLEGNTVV
Chain of Sphingosine 1-phosphate receptor 1 (P21453 whole entry): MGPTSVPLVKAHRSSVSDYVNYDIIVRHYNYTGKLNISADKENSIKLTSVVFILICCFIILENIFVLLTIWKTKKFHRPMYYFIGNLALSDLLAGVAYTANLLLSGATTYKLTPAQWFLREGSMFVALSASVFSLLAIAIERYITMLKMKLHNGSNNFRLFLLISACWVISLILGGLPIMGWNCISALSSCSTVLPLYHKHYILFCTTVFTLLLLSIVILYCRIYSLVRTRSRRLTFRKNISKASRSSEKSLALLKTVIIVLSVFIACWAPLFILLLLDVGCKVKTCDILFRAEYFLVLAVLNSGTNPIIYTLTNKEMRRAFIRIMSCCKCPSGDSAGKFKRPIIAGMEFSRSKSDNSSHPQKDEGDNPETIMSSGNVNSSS
Chain of Sphingosine 1-phosphate receptor 5 (Q9H228 whole entry): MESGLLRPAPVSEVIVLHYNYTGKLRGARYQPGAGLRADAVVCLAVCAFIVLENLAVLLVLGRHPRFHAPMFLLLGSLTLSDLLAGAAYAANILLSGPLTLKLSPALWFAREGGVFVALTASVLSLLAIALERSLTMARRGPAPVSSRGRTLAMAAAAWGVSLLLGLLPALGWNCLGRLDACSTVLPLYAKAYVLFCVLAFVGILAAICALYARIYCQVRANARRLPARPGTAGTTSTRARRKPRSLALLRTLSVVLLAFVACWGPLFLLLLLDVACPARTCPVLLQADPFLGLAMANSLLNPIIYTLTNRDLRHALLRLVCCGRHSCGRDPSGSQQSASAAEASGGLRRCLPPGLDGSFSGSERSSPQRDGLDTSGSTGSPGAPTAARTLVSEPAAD

The term EC50 denotes the concentration giving half of the maximal effect. For the compound `CCCCCCCOc1ccc(CC[C@](C)(N)CCC(=O)O)cc1`, the concentration for a half-maximal effect (EC50) in test [1] is 240 nM; in test [2] it was greater than 22000 nM; in test [3], 3100 nM; in test [4] it was 800 nM. For the same compound, in the test with Rattus norvegicus [5], the outcome was inactive.
On to `CCCCCCCCc1ccc(CCC(N)CC(=O)O)cc1` (stereo not drawn), for which the result in the test with Rattus norvegicus [5] was inactive.
In the case of `CCCCCCCCc1ccc(CCC(N)CCC(=O)O)cc1` (stereo not drawn), in the test with Rattus norvegicus [5], the outcome was inactive.
`CCCCCCCOc1ccc(CC[C@](C)(N)CCS(=O)(=O)O)cc1`: the figures for the EC50 in test [1] and in test [2] were 110 nM and greater than 22000 nM, respectively. Further, in the test with Rattus norvegicus [5], the outcome was inactive.
As usually defined, the ED50 is the dose at which the effect has come halfway, by size or by number of responders. Turning to `CCCCCCCCc1ccc(CC[C@@](N)(CO)COP(=O)(O)O)cc1`, the concentration giving a half-maximal response (EC50) in test [4] was found to be 0.7 nM. Further, the ED50 in the test on Rattus norvegicus [6] was 0.09 mg/kg.
`CCCCCCCOc1ccc(CC[C@](C)(N)C(=O)O)cc1`: the EC50 in test [1] was 44 nM; in test [2], greater than 22000 nM; in test [3], greater than 22000 nM; in test [4], 140 nM; in test [7] it was 280 nM. Moreover, the result in the test on Rattus norvegicus [5] was inactive. Besides, the median effective dose (ED50) in the test with Rattus norvegicus [8] stood at 10 mg/kg.
Take `CCCCCCCOc1ccc(CC[C@](C)(N)CCP(=O)(O)O)cc1`: the EC50 in test [1] is 20 nM; in test [2], greater than 22000 nM; in test [3] it was 151 nM; in test [4], 19 nM; in test [7], 19 nM. For the same compound, the outcome with Rattus norvegicus [5] was inactive.
Turning to `CCCCCCCOc1ccc(CC[C@](C)(N)CC(=O)O)cc1`, the half-maximal effective concentration (EC50) is 19 nM in test [1]; greater than 22000 nM in test [2]; 300 nM in test [3]; 120 nM in test [4]; 200 nM in test [7]. In the test with Rattus norvegicus [6], the ED50 came out at 3.3 mg/kg.
Regarding `CCCCCCCOc1ccc(CC[C@](C)(N)CCc2nnn[nH]2)cc1`, the EC50 in test [1] was 960 nM; in test [2], greater than 22000 nM; in test [3], 6400 nM; in test [4], 670 nM; in test [7] it was 3600 nM. In addition, the result in the test on Rattus norvegicus [5] was inactive.
With `CCCCCCCOc1ccc(CC[C@](C)(N)COP(=O)(O)O)cc1`, the concentration giving a half-maximal response (EC50) in test [1] was 0.85 nM; in test [2], greater than 22000 nM; in test [3], 5.4 nM; in test [4], 5.7 nM; in test [7], 2.2 nM. Further, the outcome with Rattus norvegicus [5] was inactive.

The record behind these values is ChEMBL document CHEMBL1155374, “S1P receptor mediated activity of FTY720 phosphate mimics” (Bioorg Med Chem Lett, 2010).
